Laboratory results as given in patent publication US20140072617A1, “METHOD FOR PREVENTING OR SLOWING DOWN THE APPEARANCE OF THE EFFECTS OF SKIN AGEING USING A TOCOPHERYL PHOSPHATE IN LIPOSOMES” (LVMH RECHERCHE, priority 2007, published 2014).

Legend:
[1] = tested on: normal human keratinocytes (NHKs); test: Apoptosis of normal human keratinocytes after H2O2 oxidative stress (JC-1/TOTO-3 cytometry); assay type: cell-based; conditions: for % NHKs undergoing apoptosis: pretreated 24 h at 10 μg/ml, then 1 mM H2O2 for 3 h, nontreated H2O2 control 54.82, nontreated control 5.48
Description: The cells undergoing apoptosis (programmed cell death) are examined on normal human keratinocytes (NHKs) in culture.
The cells are pretreated or not pretreated (controls) for 24 h with the vitamin E derivatives in solution at 10 μg/ml.
The cells are subsequently subjected to oxidative stress (1 mM H2O2 for 3 h).
The proportion of cells undergoing apoptosis is determined by cytometry using the fluorescent probes JC-1 (measurement of mitochondrial transmembrane potential) and TOTO-3 (measurement of plasma membrane permeability).
The apoptotic cells are JC-1-negative (corresponding to a drop in the mitochondrial transmembrane potential) and TOTO-3-negative (corresponding to an absence of alteration of the plasma membrane).
This method has been published (Zullani et al. Cytometry part A, 2003, 54A: 100-108).

epidermal stem cells = test: Clonogenicity test on keratinocyte colonies derived from epidermal stem cells after oxidative stress; assay type: cell-based, human; conditions: 1 μg/ml for 24 h, then hydrogen peroxide 15 minutes, 7 days of culture; versus stressed controls without treatment
Source text: In order to study these epidermal stem cells in the basal cell layer of the epidermis, the test carried out, known as clonogenecity test, is based on the ability that the stem cells have of adhering, in vitro, to a culture support and of dividing so as to generate a large population of daughter cells grouped together in the form of colonies (Barrandon Y., Green H., Three clonal types of keratinocyte with different capacities for multiplication, […], 2302-2306 (1987), and Barrandon Y., Biologie des cellules souches épidermiques [Epidermal Stem Cell Biology], Ann. Dermatol. Venereol. Suppl. 2: 285-286, (1998)).
Analysis of the number and of the size of the colonies after culture makes it possible to characterize the epidermal stem cells.
The first step of isolating these cells consists in preparing a suspension of epidermal cells (Germain L et al., Improvement of human keratinocyte isolation and culture using thermolysin, Burns 19, 99-104 (1993)).
These cells are subsequently seeded onto feeder cells (3T3 fibroblasts), the mitotic activity of which is blocked with mitomycin. […]
After 7 days of culture, the cell colonies formed from each initial keratinocyte are coloured and counted by image analysis according to their size so as to evaluate the amount of stem cells of the initial culture. […]

Row | Compound | % NHKs undergoing apoptosis [1] | protective effect against oxidative stress for the keratinocytes (in words) ([1]; 10 μg/ml 24 h, 1 mM H2O2 3 h, compared with control, vitamin E and the other derivatives) | number of large colonies (>4 mm^2) compared with the controls (epidermal stem cells)
1 | Cc1c(C)c2c(c(C)c1OC(=O)c1cc(O)ccc1O)CCC(C)(CCCC(C)CCCC(C)CCCC(C)C)O2 (stereo not drawn) [tocopheryl gentisate] | 60.67% |  | 
2 | tocotrienol | 42.85% |  | 
3 | alpha-tocopheryl phosphate | 32.79% | significantly greater than that observed for the control, and also than that observed for vitamin E or the other derivatives | 
4 | Cc1c(C)c2c(c(C)c1OP(=O)([O-])[O-])CCC(C)(CCCC(C)CCCC(C)CCCC(C)C)O2.[Na+].[Na+] (stereo not drawn) [sodium alpha-tocopheryl phosphate] |  |  | +104%
5 | Cc1c(C)c2c(c(C)c1O)CC[C@@](C)(CCC[C@H](C)CCC[C@H](C)CCCC(C)C)O2 [alpha-tocopherol] | 58.82% |  | 
